This is an account of results in ChEMBL document CHEMBL6078644, “Azobenzene-Tagged Photopeptides Exhibiting Excellent Selectivity and Light-Induced Cytotoxicity in MCF-7 Cells over HeLa and A549” (J Med Chem, 2024).

In data set [1] the test system is MCF7. Description: Cytotoxicity against human MCF7 cells assessed as reduction in cell viability incubated for 48 hrs with compound prepared under 365 nm UV light condition for 1 hrs by CellTIter blue reagent based fluorescence plate reader analysis. (The colour change of resazurin is a common sign of viable cells or microbes.)
Data set [2] has as its system A549. Description: Cytotoxicity against human A549 cells assessed as reduction in cell viability incubated for 48 hrs with compound prepared under 365 nm UV light condition for 1 hrs by CellTIter blue reagent based fluorescence plate reader analysis.
Data set [3] in a line: Half-life of compound under dark condition measured for 150 hrs at 6 hrs interval by UV-spectroscopy. Format: physicochemical.
The target of data set [4] is Proteasome Macropain subunit (Homo sapiens) (UniProt P49721). Description: Inhibition of human 20S proteosome beta2 subunit using Bz-VGR-AMC as substrate preincubated for 30 mins with compound prepared under 365 nm UV light condition for 1 hrs followed by substrate addition and measured after 12 hrs by fluorescence plate reader analysis. Conditions: time 12.5 hrs.
Sequence of Proteasome Macropain subunit (Homo sapiens) (P49721 whole entry): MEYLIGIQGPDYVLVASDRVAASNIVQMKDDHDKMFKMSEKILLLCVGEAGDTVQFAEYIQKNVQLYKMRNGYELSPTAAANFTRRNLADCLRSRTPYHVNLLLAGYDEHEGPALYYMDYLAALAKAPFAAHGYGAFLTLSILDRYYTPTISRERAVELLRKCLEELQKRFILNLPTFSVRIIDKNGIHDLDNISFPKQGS
Data set [5] concerns the target T1, Proteasome component C5 (Homo sapiens) (UniProt P20618).
T1 sequence (whole entry): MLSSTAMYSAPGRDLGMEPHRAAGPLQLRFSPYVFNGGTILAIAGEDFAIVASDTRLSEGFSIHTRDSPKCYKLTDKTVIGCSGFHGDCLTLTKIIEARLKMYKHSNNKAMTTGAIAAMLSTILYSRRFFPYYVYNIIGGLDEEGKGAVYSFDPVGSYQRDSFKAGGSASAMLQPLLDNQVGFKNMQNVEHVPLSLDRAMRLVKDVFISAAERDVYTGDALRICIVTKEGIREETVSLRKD
Description: Inhibition of human 20S proteosome beta1 subunit using […] as substrate preincubated for 30 mins with compound prepared under 365 nm UV light condition for 1 hrs followed by substrate addition and measured after 12 hrs by fluorescence plate reader analysis. The note with it: time 12.5 hrs.

For data set [6], the system named is HeLa. Briefly: Cytotoxicity against human HeLa cells assessed as reduction in cell viability incubated for 48 hrs with compound prepared under 365 nm UV light condition for 1 hrs by CellTIter blue reagent based fluorescence plate reader analysis.
A short description of data set [7]: Retention time of compound by HPLC analysis. Format: physicochemical.
The subject of data set [8] is HeLa. Briefly: Cytotoxicity against human HeLa cells assessed as reduction in cell viability incubated for 48 hrs with compound prepared under dark condition by CellTIter blue reagent based fluorescence plate reader analysis.
Data set [9] relates to A549. Description: Cytotoxicity against human A549 cells assessed as reduction in cell viability incubated for 48 hrs with compound prepared under dark condition by CellTIter blue reagent based fluorescence plate reader analysis. Format: functional. The note with it: A549, 48 h.
For data set [10], the system named is MCF7. Briefly: Cytotoxicity against human MCF7 cells assessed as reduction in cell viability incubated for 48 hrs with compound prepared under dark condition by CellTIter blue reagent based fluorescence plate reader analysis. The note with it: MCF7, 48 h. Format: functional.
Data set [11] addresses T1, Proteasome component C5 (Homo sapiens). Description: Inhibition of human 20S proteosome beta1 subunit using […] as substrate preincubated for 30 mins with compound prepared under dark condition followed by substrate addition and measured after 12 hrs by fluorescence plate reader analysis. Conditions: time 12.5 hrs.
The target in data set [12] is Proteasome Macropain subunit (Homo sapiens) (UniProt P49721). Briefly: Inhibition of human 20S proteosome beta2 subunit using Bz-VGR-AMC as substrate preincubated for 30 mins with compound prepared under dark condition followed by substrate addition and measured after 12 hrs by fluorescence plate reader analysis. The note with it: time 12.5 hrs.
Data set [13] is described as follows: Potency index, ratio of E-enrichment isomer IC50 to test compound (Z-enrichment isomer) IC50 for cytotoxicity against human HeLa cells assessed as reduction in c ell viability incubated for 48 hrs by CellTiter blue reagent based fluorescence plate reader analysis. Format: functional.
The nature of data set [14]: Potency index, ratio of E-enrichment isomer IC50 to test compound (Z-enrichment isomer) IC50 for cytotoxicity against human MCF7 cells assessed as reduction in c ell viability incubated for 48 hrs by CellTiter blue reagent based fluorescence plate reader analysis. Format: functional.
A short description of data set [15]: Potency index, ratio of E-enrichment isomer IC50 to test compound (Z-enrichment isomer) IC50 for cytotoxicity against human A549 cells assessed as reduction in c ell viability incubated for 48 hrs by CellTiter blue reagent based fluorescence plate reader analysis. Format: functional.

The source made the active and inactive calls. The calls are words filed in the database; no cut-off is given here.

What is called IC50 is the concentration needed to halve the response being measured. As to `CC(C)CC(NC(=O)[C@H](Cc1ccccc1)NC(=O)c1ccc(/N=N\c2ccccc2)cc1)B(O)O` (some centres not stated), the values for the IC50 in the data set with MCF7 [1] and with A549 [2] were 6.7 µM and 17.3 µM, respectively.
A word on the half-life: it is the time in which the quantity being followed falls by half. For the compound `Cc1cc(C)cc(/N=N\c2cccc(C(=O)N[C@H](C(=O)N[C@@H](Cc3ccccc3)C(=O)N[C@H](/C=C/S(C)(=O)=O)CC(C)C)C(C)C)c2)c1`, the half-life in data set [3] is over 100 h. For the same compound, the IC50 with MCF7 [1] turned out to be 2.25 µM; in the data set with A549 [2] it was 6.95 µM; in the data set with HeLa [6] it was 2.9 µM. Also, the inhibition entry in data set [4] and in data set [5] was “inactive” in each case.
With `Cc1cc(C)cc(/N=N\c2cccc(C(=O)N[C@@H](CC(C)C)C(=O)N[C@@H](CC(C)C)C(=O)N[C@H](/C=C/S(C)(=O)=O)CC(C)C)c2)c1`, the half-life in data set [3] was over 100 h. The IC50 was 4.39 µM in the data set on MCF7 [1], 0.73 µM with A549 [2] and 0.28 µM in the data set with HeLa [6]. In addition, the inhibition entry in data set [4] and in data set [5] was “inactive” in each case. This compound yielded a Retention_time in data set [7] of 13.5 min.
Turning to `Cc1cc(C)cc(/N=N/c2cccc(C(=O)N[C@@H](Cc3ccccc3)C(=O)N[C@@H](CC(C)C)C(=O)N[C@H](/C=C/S(C)(=O)=O)CC(C)C)c2)c1`, the IC50 in the data set with HeLa [8] is 1.23 µM; with A549 [9] it was 2.59 µM; in the data set on MCF7 [10] it was 35.8 µM. Moreover, the inhibition result in data set [11] and in data set [12] was “inactive” in each case.
With `CC(C)C[C@H](NC(=O)[C@H](Cc1ccc(/N=N\c2ccccc2)cc1)NC(=O)OC(C)(C)C)B1OC2C[C@@H]3C[C@@H](C3(C)C)[C@@]2(C)O1` (some centres not stated), the IC50 was 27.9 µM in the data set on MCF7 [1], 66.4 µM in the data set with A549 [2] and 38.1 µM in the data set with HeLa [6]. Also, the “Ratio IC50” value in [13] was 1; in data set [14], 1.4; in data set [15], 0.79.
In data set [3], `Cc1cc(C)cc(/N=N\c2cccc(C(=O)N[C@@H](Cc3c[nH]c4ccccc34)C(=O)N[C@@H](CC(C)C)C(=O)N[C@H](/C=C/S(C)(=O)=O)CC(C)C)c2)c1` displayed a half-life of over 100 h. Moreover, the results for the IC50 in the data set with MCF7 [1], with A549 [2] and in the data set on HeLa [6] were 5.44 µM, 0.42 µM and 0.25 µM, respectively. Further, the inhibition result in data set [4] and in [5] was “inactive” in each case.
`Cc1cc(C)cc(N=Nc2cccc(C(=O)N[C@@H](Cc3ccccc3)C(=O)N[C@@H](CC(C)C)C(=O)N[C@H](C=CS(C)(=O)=O)CC(C)C)c2)c1`: the half-life in [3] is over 100 h. In addition, the 50% inhibitory concentration (IC50) in the data set on MCF7 [1] amounted to 7.51 µM; in the data set on A549 [2], 1.9 µM; in the data set on HeLa [6] it was 0.32 µM. In addition, the inhibition result in [4] and in [5] was “inactive” each time.
Turning to `Cc1cc(C)cc(/N=N/c2cccc(C(=O)N[C@H](C(=O)N[C@@H](Cc3ccccc3)C(=O)N[C@H](/C=C/S(C)(=O)=O)CC(C)C)C(C)C)c2)c1`, the IC50 came to 9.6 µM in the data set with HeLa [8], 45.9 µM in the data set with A549 [9] and 48.5 µM with MCF7 [10]. In addition, the inhibition entry in data set [11] and in [12] was “inactive” in each case.
As for `CC(C)C[C@H](NC(=O)[C@H](Cc1ccc(/N=N/c2ccccc2)cc1)NC(=O)OC(C)(C)C)B1OC2C[C@@H]3C[C@@H](C3(C)C)[C@@]2(C)O1` (some centres not stated), the IC50 in the data set with HeLa [8] was found to be 38.2 µM; in the data set with A549 [9], 52.5 µM; in the data set on MCF7 [10], 40.1 µM.
As for `Cc1cc(C)cc(/N=N/c2cccc(C(=O)N[C@@H](CC(C)C)C(=O)N[C@@H](CC(C)C)C(=O)N[C@H](/C=C/S(C)(=O)=O)CC(C)C)c2)c1`, the IC50 in the data set on HeLa [8] amounted to 0.42 µM; in the data set with A549 [9] it was 2.56 µM; in the data set on MCF7 [10], 8.36 µM. The inhibition entry in [11] and in data set [12] was “inactive” each time. In addition, in data set [7], the Retention_time is 11.1 min.
As for `Cc1cc(C)cc(/N=N/c2cccc(C(=O)N[C@@H](Cc3c[nH]c4ccccc34)C(=O)N[C@@H](CC(C)C)C(=O)N[C@H](/C=C/S(C)(=O)=O)CC(C)C)c2)c1`, the values for the IC50 in the data set with HeLa [8], in the data set with A549 [9] and with MCF7 [10] were 0.285 µM, 1.98 µM and 10.6 µM, respectively. For the same compound, the inhibition entry in [11] and in [12] was “inactive” each time.
